Values after ≈ are worked out from the molar mass of the structure shown.
Tests used:
Assay type in all cases: functional
Conditions in all cases: read-out: ED50 (the source's name)
XF498 = assay: Cytotoxicity against human XF498 cells
HCT-15 = assay: Cytotoxicity against human HCT-15 cells
SK-MEL-2 = assay: Cytotoxicity against human SK-MEL-2 cells
A549 = assay: Cytotoxicity against human A549 cells
SK-OV-3 = assay: Cytotoxicity against human SKOV3 cells

SMILES	EC50 (XF498)	EC50 (HCT-15)	EC50 (SK-MEL-2)	EC50 (A549)	EC50 (SK-OV-3)
C#C[C@@H](O)/C=C/CCCCCCC#CC/C=C/C/C=C/CCCCCCCC[C@H](O)C#C [DIDEOXYPETROSYNOL F]	> 3 µg/mL	> 3 µg/mL	> 3 µg/mL	> 3 µg/mL	> 3 µg/mL
COc1cccc2c1C(=O)c1c(O)c3c(c(O)c1C2=O)C[C@@](O)(C(=O)CO)C[C@@H]3O[C@H]1C[C@H](N)[C@H](O)[C@H](C)O1 [DOXORUBICIN]	0.2 µg/mL (≈ 0.368 µM)	0.9 µg/mL (≈ 1.66 µM)	0.2 µg/mL (≈ 0.368 µM)	0.1 µg/mL (≈ 0.184 µM)	0.2 µg/mL (≈ 0.368 µM)
C#C/C=C/[C@@H](O)CCCCCCCCC/C=C/CC#CCCCCCC/C=C/[C@H](O)C#C [DIDEOXYPETROSYNOL E]	0.6 µg/mL (≈ 1.37 µM)	0.8 µg/mL (≈ 1.83 µM)	0.1 µg/mL (≈ 0.229 µM)	1.3 µg/mL (≈ 2.98 µM)	0.1 µg/mL (≈ 0.229 µM)
C#C/C=C\CCCCCCCCCCCCCC/C=C/CCCC/C=C/CCCCC#C[C@@H](O)C#CCCCCCCCC[C@H](O)C#C [PETROTETRAYNDIOL B]	> 3 µg/mL	3.7 µg/mL (≈ 5.63 µM)	1.9 µg/mL (≈ 2.89 µM)	1.7 µg/mL (≈ 2.59 µM)	2.2 µg/mL (≈ 3.35 µM)
C#C/C=C\CCCCCCCCCCCCCC/C=C/CCCC/C=C/CC/C=C/C#C[C@@H](O)C#CCCCCCC/C=C/[C@H](O)C#C [PETROTETRAYNDIOL A]	1.7 µg/mL (≈ 2.6 µM)	1 µg/mL (≈ 1.53 µM)	0.9 µg/mL (≈ 1.38 µM)	1.6 µg/mL (≈ 2.45 µM)	0.5 µg/mL (≈ 0.766 µM)
C#C/C=C\CCCCCCCCCCCCCC/C=C/CCCC/C=C/CCCCC#C[C@@H](O)C#CCCCCCC/C=C/[C@H](O)C#C	1.7 µg/mL (≈ 2.6 µM)	1 µg/mL (≈ 1.53 µM)	1.1 µg/mL (≈ 1.68 µM)	1.1 µg/mL (≈ 1.68 µM)	0.6 µg/mL (≈ 0.916 µM)
C#CC(O)/C=C/CCCCCCC#CC/C=C/CCCCCCCCC/C=C/C(O)C#C (stereo not given)	1.2 µg/mL (≈ 2.75 µM)	1.2 µg/mL (≈ 2.75 µM)	0.2 µg/mL (≈ 0.458 µM)	1.4 µg/mL (≈ 3.21 µM)	0.1 µg/mL (≈ 0.229 µM)
